Assay results from patent US8071580B2, “Medium-chain length fatty alcohols as stimulators of hematopoiesis” (Prometic Biosciences Inc., priority 2004, dated 2011).

Key:
[1] = test system: Female C57BL/6 mice immunosuppressed with cyclophosphamide; test: Chemoprotection studies: in vivo induction of immune cell proliferation or protection in cyclophosphamide-immunosuppressed mice; conditions: oral pre-treatment day -3, -2, -1, CY 200 mg/kg i.v. day 0, sacrifice day +5; for peripheral white blood cell count: FIG. 2; for spleen red cell count: FIG. 3
Protocol: Chemoprotection Studies: In vivo Induction of Immune Cell Proliferation or Protection By Medium-Chain Fatty Alcohol.
Female C57BL/6 mice, 6 to 8 weeks old, were immunosuppressed by treatment with 200 mg/kg of cyclophosphamide (CY) administered intravenously at day 0. To examine the immunoprotective effect of the medium-chain fatty alcohol, mice were pre-treated at day −3, −2 and −1 by oral administration of the compound. Mice were sacrificed at day +5 by cardiac puncture and cervical dislocation. After the sacrifice, tissues were crushed in PBS buffer and cells were counted on a hemacytometer.

rats = conditions: oral; cited from earlier work

SMILES | peripheral white blood cell count [1] | spleen red cell count [1] | LD50 (rats) [g/kg body weight] | bone marrow white cell count ([1]; FIG. 1)
CCCCCCCCCCCCO [dodecanol] | nonsignificant increase | significant increase |  | 
CCCCCCCCCCO [decanol] | nonsignificant increase | significant increase | 4.7 | significant increase
CCCCCCCCO [octanol] | nonsignificant increase | significant increase | 3.2 | 
